Results published in patent US11725189B2, “Maintenance culture of induced pluripotent stem cell-derived intestinal stem cells” (PUBLIC UNIVERSITY CORPORATION NAGOYA CITY UNIVERSITY, priority 2017, dated 2023).

Legend:
TGF-β receptor ALK5 = biological target: T1, TGF-β receptor ALK5 (Homo sapiens, UniProt P36897); settings: cited from earlier work
T1 sequence (P36897 34-503): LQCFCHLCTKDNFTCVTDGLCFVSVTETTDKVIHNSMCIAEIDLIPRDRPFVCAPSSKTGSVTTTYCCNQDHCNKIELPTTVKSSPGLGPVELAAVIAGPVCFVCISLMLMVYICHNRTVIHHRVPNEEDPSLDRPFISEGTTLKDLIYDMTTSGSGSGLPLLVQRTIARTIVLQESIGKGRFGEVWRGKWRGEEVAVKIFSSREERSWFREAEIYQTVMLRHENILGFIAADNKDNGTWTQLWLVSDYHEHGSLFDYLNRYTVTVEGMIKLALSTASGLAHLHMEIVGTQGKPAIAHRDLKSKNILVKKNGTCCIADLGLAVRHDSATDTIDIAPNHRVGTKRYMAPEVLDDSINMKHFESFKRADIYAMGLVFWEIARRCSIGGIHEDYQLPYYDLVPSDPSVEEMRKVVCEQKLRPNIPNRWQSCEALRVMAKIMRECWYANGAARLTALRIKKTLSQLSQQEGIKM

TGF-β receptor ALK4 = biological target: T2, TGF-β receptor ALK4 (Homo sapiens, UniProt P36896); settings: cited from earlier work
T2 sequence (P36896 24-505): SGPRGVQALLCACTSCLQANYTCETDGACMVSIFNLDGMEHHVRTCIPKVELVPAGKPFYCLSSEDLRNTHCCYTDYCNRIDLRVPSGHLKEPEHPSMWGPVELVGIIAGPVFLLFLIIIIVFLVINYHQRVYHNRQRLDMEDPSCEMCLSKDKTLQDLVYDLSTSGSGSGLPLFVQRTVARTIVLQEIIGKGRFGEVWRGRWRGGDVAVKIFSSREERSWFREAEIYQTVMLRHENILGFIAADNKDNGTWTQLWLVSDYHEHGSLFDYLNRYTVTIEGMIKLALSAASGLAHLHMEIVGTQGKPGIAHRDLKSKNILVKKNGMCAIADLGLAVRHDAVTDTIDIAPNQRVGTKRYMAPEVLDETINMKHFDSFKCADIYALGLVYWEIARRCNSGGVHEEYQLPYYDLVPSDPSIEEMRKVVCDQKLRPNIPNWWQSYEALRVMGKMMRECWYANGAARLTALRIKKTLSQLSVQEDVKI

TGF-β receptor ALK7 = biological target: T3, TGF-β receptor ALK7 (Homo sapiens, UniProt Q8NER5); settings: cited from earlier work
T3 sequence (Q8NER5 21-493): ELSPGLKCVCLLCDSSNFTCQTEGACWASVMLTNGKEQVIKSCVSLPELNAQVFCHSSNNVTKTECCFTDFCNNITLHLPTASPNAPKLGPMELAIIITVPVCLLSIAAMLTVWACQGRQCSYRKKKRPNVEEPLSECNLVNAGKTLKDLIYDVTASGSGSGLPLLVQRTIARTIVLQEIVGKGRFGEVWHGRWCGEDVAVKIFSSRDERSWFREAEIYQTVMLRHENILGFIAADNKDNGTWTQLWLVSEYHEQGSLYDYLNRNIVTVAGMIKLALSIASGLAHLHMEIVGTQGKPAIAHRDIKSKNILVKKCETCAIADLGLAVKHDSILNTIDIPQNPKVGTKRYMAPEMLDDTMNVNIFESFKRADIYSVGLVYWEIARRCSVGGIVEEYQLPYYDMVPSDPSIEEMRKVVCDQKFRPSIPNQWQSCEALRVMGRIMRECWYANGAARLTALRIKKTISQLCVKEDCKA

mucin 2 = assay: Detection of mucin 2 mRNA (real-time RT-PCR) in human iPS cell-derived intestinal epithelial cells; assay type: cell-based
From the text: (§1) iPS cells were allowed to differentiate into intestinal stem cells, which were then subcultured once. Thereafter, the cells were subjected to a maintenance culture according to the culture method of intestinal stem cells, which had been established in the above-described studies, and were then allowed to differentiate into intestinal epithelial cells.
(§2) After the differentiated intestinal epithelial cells had been recovered, RNA was extracted using Agencourt (registered trademark) RNAdvance™ Tissue Kit, in accordance with the instruction manual included therewith.
(§3) Complementary DNA (cDNA) was synthesized using ReverTra Ace (registered trademark) qPCR RT Master Mix, in accordance with the instruction manual included therewith.
(§4) Real-Time RT-PCR was carried out on cDNA used as a template, using KAPA SYBR Fast qPCR Kit, in accordance with the instruction manual included therewith.

chromogranin A (CgA) = assay: Detection of CgA mRNA (real-time RT-PCR) in human iPS cell-derived intestinal epithelial cells; assay type: cell-based
From the text: as §1, §2, §3, §4

[1] = 100 μM or 200 μM rebamipide together with 200 μM indomethacin, 6 days

Row | Compound | inhibitory activity against TGF-β receptor ALK5 (TGF-β receptor ALK5) | inhibitory activity against TGF-β receptor ALK4 (TGF-β receptor ALK4) | inhibitory activity against TGF-β receptor ALK7 (TGF-β receptor ALK7) | expression level of mucin 2 (mRNA expression level) (mucin 2; 50 μM, 100 μM and 200 μM added to the medium for 6 days, versus control (Con)) | decrease in the expression of mucin 2 (mRNA expression level) caused by indomethacin (mucin 2; [1]) | cytotoxicity (mucin 2; 200 μM added to the medium (R200)) | increase in the expression level of CgA (mRNA expression level) (chromogranin A (CgA); 50 μM, 100 μM and 200 μM added to the medium for 6 days) | decrease in the expression level of CgA (mRNA expression level) caused by indomethacin (chromogranin A (CgA); [1])
1 | Cc1cccc(-c2nn(C(=S)Nc3ccccc3)cc2-c2ccnc3ccccc23)n1 [A-83-01] | exhibited inhibitory activity | exhibited inhibitory activity | exhibited inhibitory activity | – | – | – | – | –
2 | O=C(NC(Cc1cc(=O)[nH]c2ccccc12)C(=O)O)c1ccc(Cl)cc1 (centres unmarked) [rebamipide] | – | – | – | increased | tended to be suppressed | likely to cause cytotoxicity | not particularly observed | tended to be suppressed
